Assay results taken from patent publication US11083725B2 (priority 2014, dated 2021).

Tested on: NHBE cells
Assay: Biolog metabolic array: substrate use by NHBE cells with or without CA09 infection
Assay type: cell-based, human
Details: for Substrate use, 590 nm absorbance normalized to zero hour, 1 hr: Biolog PMM2, 1 hr; for Substrate use, 590 nm absorbance normalized to zero hour, 5 hr: Biolog PMM2, 5 hr; for Substrate use, 590 nm absorbance normalized to zero hour, 7 hr: Biolog PMM2, 7 hr; for Substrate use, 590 nm absorbance normalized to zero hour, 0 hr: Biolog PMM2, 0 hr
[1] = Control (uninfected) NHBE cells
[2] = Virus (CA09-infected, MOI 1) NHBE cells
[3] = Virus: CA09-infected NHBE cells, MOI 1, Biolog PMM2
[4] = Virus (CA09, MOI 1) infected NHBE cells

For `OC[C@H]1O[C@@H](O[C@@H]2[C@@H](CO)OC(O)(CO)[C@H]2O)[C@H](O)[C@@H](O)[C@H]1O` (mixture of isomers) [Lactulose], the “590 nm absorbance normalized to zero hour (substrate use), 1 hr” value [1] was 1.71, the “590 nm absorbance normalized to zero hour (substrate use), 2 hr” value (from here on “590 nm absorbance normalized … 2 hr”) [1] was 2.30 and the “590 nm absorbance normalized to zero hour (substrate use), 3 hr” value (from here on “590 nm absorbance normalized … 3 hr”) [1] was 2.70. For the same compound, the “590 nm absorbance normalized to zero hour (substrate use), 4 hr” value (from here on “590 nm absorbance normalized … 4 hr”) [1] was 2.88, the “590 nm absorbance normalized to zero hour (substrate use), 6 hr” value (from here on “590 nm absorbance normalized … 6 hr”) [1] was 3.78 and the “590 nm absorbance normalized to zero hour (substrate use), 8 hr” value (from here on “590 nm absorbance normalized … 8 hr”) [1] was 4.04. For the same compound, the “590 nm absorbance normalized to zero hour (substrate use), 9 hr” value (from here on “590 nm absorbance normalized … 9 hr”) [1] was 4.27, the “590 nm absorbance normalized to zero hour (substrate use), 10 hr” value (from here on “590 nm absorbance normalized … 10 hr”) [1] was 4.46 and the “590 nm absorbance normalized to zero hour (substrate use), 11 hr” value (shortened to “590 nm absorbance normalized … 11 hr”) [1] was 5.14. The “Substrate use, 590 nm absorbance normalized to zero hour, 1 hr” value [1] was 1.71, the “Substrate use, 590 nm absorbance normalized to zero hour, 5 hr” value [1] was 3.40 and the “Substrate use, 590 nm absorbance normalized to zero hour, 7 hr” value [1] was 3.82. The “590 nm absorbance normalized to zero hour (substrate use), 1 hr” value [2] was 1.68, the “590 nm absorbance normalized … 2 hr” value [2] was 2.24 and the “590 nm absorbance normalized … 3 hr” value [2] was 2.56. For the same compound, the “590 nm absorbance normalized … 4 hr” value [2] was 2.71, the “590 nm absorbance normalized to zero hour (substrate use), 5 hr” value [2] was 3.13 and the “590 nm absorbance normalized … 6 hr” value [2] was 3.31. The “590 nm absorbance normalized to zero hour (substrate use), 7 hr” value [2] was 3.50, the “590 nm absorbance normalized … 8 hr” value [2] was 3.70 and the “590 nm absorbance normalized … 9 hr” value [2] was 4.05. For the same compound, the “590 nm absorbance normalized … 10 hr” value [2] was 4.25, the “590 nm absorbance normalized … 11 hr” value [2] was 4.63 and the “590 nm absorbance normalized to zero hour (substrate use), 1 hr” value [3] was 1.68. The “590 nm absorbance normalized … 2 hr” value [3] was 2.24, the “590 nm absorbance normalized … 3 hr” value [3] was 2.56 and the “590 nm absorbance normalized … 4 hr” value [3] was 2.71. For the same compound, the “590 nm absorbance normalized to zero hour (substrate use), 5 hr” value [3] was 3.13, the “590 nm absorbance normalized … 6 hr” value [3] was 3.31 and the “590 nm absorbance normalized to zero hour (substrate use), 7 hr” value [3] was 3.50. The “590 nm absorbance normalized … 8 hr” value [3] was 3.70, the “590 nm absorbance normalized … 9 hr” value [3] was 4.05 and the “590 nm absorbance normalized … 10 hr” value [3] was 4.25. For the same compound, the “590 nm absorbance normalized … 11 hr” value [3] was 4.63.

`O=P(O)(O)OC[C@H](O)CO` (racemic) [D,L-a-Glycerol Phosphate] was tested, and the “590 nm absorbance normalized to zero hour (substrate use), 0 hr” value [1] was 1.00, the “590 nm absorbance normalized to zero hour (substrate use), 1 hr” value [1] was 0.34 and the “590 nm absorbance normalized … 2 hr” value [1] was 0.48. For the same compound, the “590 nm absorbance normalized … 3 hr” value [1] was 0.56, the “590 nm absorbance normalized … 4 hr” value [1] was 0.60 and the “590 nm absorbance normalized … 6 hr” value [1] was 0.71. For the same compound, the “590 nm absorbance normalized … 8 hr” value [1] was 0.83, the “590 nm absorbance normalized … 9 hr” value [1] was 0.91 and the “590 nm absorbance normalized … 10 hr” value [1] was 0.91. The “590 nm absorbance normalized … 11 hr” value [1] was 1.05, the “Substrate use, 590 nm absorbance normalized to zero hour, 0 hr” value [1] was 1.00 and the “Substrate use, 590 nm absorbance normalized to zero hour, 1 hr” value [1] was 0.34. For the same compound, the “Substrate use, 590 nm absorbance normalized to zero hour, 5 hr” value [1] was 0.70, the “Substrate use, 590 nm absorbance normalized to zero hour, 7 hr” value [1] was 0.79 and the “Substrate use, 590 nm absorbance normalized to zero hour, 0 hr” value [4] was 1.00. For the same compound, the “Substrate use, 590 nm absorbance normalized to zero hour, 1 hr” value [4] was 2.01, the “Substrate use, 590 nm absorbance normalized to zero hour, 5 hr” value [4] was 3.72 and the “Substrate use, 590 nm absorbance normalized to zero hour, 7 hr” value [4] was 4.18. The “590 nm absorbance normalized to zero hour (substrate use), 0 hr” value [2] was 1.00, the “590 nm absorbance normalized to zero hour (substrate use), 1 hr” value [2] was 2.01 and the “590 nm absorbance normalized … 2 hr” value [2] was 2.64. For the same compound, the “590 nm absorbance normalized … 3 hr” value [2] was 3.07, the “590 nm absorbance normalized … 4 hr” value [2] was 3.24 and the “590 nm absorbance normalized … 6 hr” value [2] was 3.99. The “590 nm absorbance normalized … 8 hr” value [2] was 4.43, the “590 nm absorbance normalized … 9 hr” value [2] was 4.93 and the “590 nm absorbance normalized … 10 hr” value [2] was 5.12. The “590 nm absorbance normalized … 11 hr” value [2] was 5.62.
